This is an account of results in patent publication US9771378B2 (Denali Therapeutics, Inc., priority 2014, dated 2017).

Structures are written as SMILES.

This experiment relates to Aβ42 (human neuroglioma H4 cells expressing human wild type APP751). Briefly: In vitro cell screening assay with sandwich ELISA quantification of Aβ42 peptide. It is filed as cell-based. The note with it: H4 cells stably expressing human wild type APP751; Pro293 chemically defined medium; compounds 0.003-10 μM; incubated overnight (16-18 h); supernatant Aβ42 by sandwich ELISA; normalized to DMSO and DAPT; read-out: Aβ42 H4 Prot Fre IC50. The procedure: Human neuroglioma H4 cells were transfected with a pcDNA3.1 plasmid expressing human wild type APP751 cDNA and a stable cell line was generated using G418 selection. Cells are plated at 15,000 cells/well in Costar 96-well plates and placed at 37° C. and 5% CO2. Six hours after plating, cells are washed three times with Pro293™ chemically defined medium, followed by addition of compounds (0.003-10 μM, final DMSO concentration of 0.33%). Plates were incubated overnight (16-18 h) and supernatant was removed for quantification of AP peptides by sandwich ELISA. Cytotoxicity was evaluated using Cell-Titer 96W AQueous One Solution Cell Proliferation Assay according to the manufacturer's protocol.
ELISA Measurements of Aβ Peptides
Aβ peptide levels were quantified by sandwich ELISA. 96-well plates are coated with C-terminal specific Aβ antibodies recognizing either Aβ37, Aβ38, Aβ40, Aβ42, Aβ43 or a N-terminal specific Aβ antibody to detect Aβ 1-x. Plates are then blocked overnight at 4° C. with 1% bovine serum albumin (BSA) in PBS-T. Plates are washed and 100 μl of cultured cell supernatant or synthetic Aβ peptide standards and a detection antibody (4G8-HRP) are applied to the blocked plate and incubated overnight at 4° C. The next day, wells are washed before the addition […] of detection substrate (TMB peroxidase). Plates are then read for absorbance at 450 nm on a Molecular Devices SpectraMax M5e Microplate Reader.
IC50 values were calculated from values reported as percent of DMSO controls using nonlinear regression, based on a sigmoidal dose-response (variable slope) model. GraphPAD software from Prism used for calculation.
For orientation: ELISA stands for enzyme-linked immunosorbent assay.
As usually defined, the IC50 is the concentration that inhibits the measured activity by half. Take `COc1nc(Nc2ncc3c(n2)N(C)C(c2cc(F)cc(F)c2)CO3)ccc1-n1cnc(C)c1` (single isomer, unassigned; (+)) [Example 179B]: the half-inhibitory concentration (IC50) amounted to 287 nM. Next, `COc1cc(Nc2ncc3c(n2)N(C)[C@@H](c2ccccc2)CO3)ccc1-c1ccnc(C)c1` [Example 21B, (S)—N-(3-methoxy-4-(2-methylpyridin-4-yl)phenyl)-8-methyl-7-phenyl-7,8-dihydro-6H-pyrimido[5,4-b][1,4]oxazin-2-amine]: 40 nM; `COc1cc(Nc2ncc3c(n2)N(C)C(c2cc(F)cc(F)c2)CO3)cnc1-n1cnc(C)c1` (single isomer, unassigned; (+)) [Example 189A]: 13 nM; `COc1cc(Nc2ncc3c(n2)N(C)C(CC(F)(F)F)CO3)ccc1-n1cnc(C)c1` (single isomer, unassigned; (-)) [Example 172A]: 207 nM.

As to `Cc1cn(-c2ccc(Nc3ncc4c(n3)N(C)C(c3cc(F)ccc3C(F)(F)F)CO4)cc2F)cn1` (single isomer, unassigned; (+)) [Example 104B], the IC50 was determined as 77 nM. The figure for `Cc1cn(-c2ccc(Nc3ncc4c(n3)N(C)C(c3ccc(F)cc3C(F)(F)F)CO4)cc2F)cn1` (single isomer, unassigned; (+)) [Example 99A] is 206 nM; for `Cc1cn(-c2ccc(Nc3ncc4c(n3)N(C)C(c3ccccc3C)CO4)cc2F)cn1` (single isomer, unassigned; (+)) [Example 34A] it is 20 nM; for `COc1ccc(C)c(C2COc3cnc(Nc4ccc(-n5cnc(C)c5)c(OC)c4)nc3N2C)c1` (single isomer, unassigned; (+)) [Example 175A] it is 11 nM. The figure for `Cc1cn(-c2ccc(Nc3ncc4c(n3)N(C)C(c3cc(F)c(F)c(F)c3)CO4)cc2)cn1` (single isomer, unassigned; (-)) [Example 115A] is 2860 nM; for `COc1cc(Nc2ncc3c(n2)N(C)C2(CCOCC2)CO3)cnc1-n1cnc(C)c1` [Example 274] it is 295 nM. As to `Cc1cn(-c2ccc(Nc3ncc4c(n3)N(C)C(c3ccccc3C(F)(F)F)CO4)cc2F)cn1` (single isomer, unassigned; (-)) [Example 84B], the IC50 came to 421 nM. Next, `COc1cc(Nc2ncc3c(n2)N2CCC(F)(F)C2CO3)ccc1-n1cnc(C)c1` (single isomer, unassigned; (-)) [Example 304A, (−)-7,7-difluoro-N-(3-methoxy-4-(4-methyl-1H-imidazol-1-yl)phenyl)-6a, 7,8,9-tetrahydro-6H-pyrimido [5,4-b] pyrrolo [1,2-d] [1, 4] oxazin-2-amine]: 274 nM. Next, `COc1cc(Nc2ncc3c(n2)N(C)C(c2ccc(Cl)cc2C(F)(F)F)CO3)ccc1-c1ccnc(C)c1` (single isomer, unassigned; (+)) [Example 107B]: 174 nM; `COc1cc(Nc2ncc3c(n2)N(C)C(C)CO3)ccc1-n1cnc(Cl)c1` (single isomer, unassigned; (-)) [Example 202A]: 167 nM. Next, `Cc1cn(-c2ccc(Nc3ncc4c(n3)N(C)C(c3cc(F)c(F)c(F)c3)CO4)cc2F)cn1` (single isomer, unassigned; (+)) [Example 118A]: 29 nM; `COc1nc(Nc2ncc3c(n2)N(C)C(C)CO3)ccc1-n1cnc(C)c1` (racemic) [Example 190]: greater than 3000 nM; `Cc1cc(-c2ccc(Nc3ncc4c(n3)N(C)C(Cc3ccccc3)CO4)cc2F)ccn1` (single isomer, unassigned; (-)) [Example 57B]: 880 nM. As to `COc1cc(Nc2ncc3c(n2)N(C)C(c2ccccc2C(F)(F)F)CO3)ccc1-c1ccnc(C)c1` (single isomer, unassigned; (-)) [Example 70A], the IC50 is 339 nM.

As to `Cc1cn(-c2ccc(Nc3ncc4c(n3)N(C)C(c3ccccc3)CO4)cc2)cn1` (single isomer, unassigned; (+)) [Example 26A], the concentration for half-maximal inhibition (IC50) was 55 nM. Next, `COc1nc(Nc2ncc3c(n2)N(C)C(C)CO3)ccc1-c1cnn(C)c1` (racemic) [Example 195]: greater than 3000 nM; `COc1cc(Nc2ncc3c(n2)N(C)C(c2cc(F)cc(F)c2)CO3)ccc1-n1cnc(C)c1` (single isomer, unassigned; (-)) [Example 30A]: 177 nM; `COc1cc(Nc2ncc3c(n2)N(C)C(C(F)(F)F)CO3)ncc1-n1cnc(C)c1` (single isomer, unassigned; (+)) [Example 236A]: greater than 3000 nM. The figure for `COc1ccc(C)c(C2COc3cnc(Nc4ccc(-n5cnc(C)c5)c(OC)c4)nc3N2C)c1` (racemic) [Example 90] is 27 nM; for `Cc1cn(-c2ccc(Nc3ncc4c(n3)N(C)C(c3ccccc3OC(F)(F)F)CO4)cc2F)cn1` (single isomer, unassigned; (+)) [Example 64A] it is 402 nM; for `COc1nc(Nc2ncc3c(n2)N(C)C(c2cc(F)cc(F)c2)CO3)ccc1-c1cnn(C)c1` (single isomer, unassigned; (+)) [Example 184B] it is greater than 3000 nM.

For `Cc1cc(-c2ccc(Nc3ncc4c(n3)N(C)C(c3ccccc3C)CO4)cc2)ccn1` (racemic) [Example 29], the half-inhibitory concentration (IC50) came out at 297 nM. Consider `Cc1cn(-c2ccc(Nc3ncc4c(n3)N(C)C(C)CO4)cn2)cn1` (single isomer, unassigned; (+)) [Example 194A], for which the concentration for half-maximal inhibition (IC50) is 970 nM. Regarding `COc1cc(Nc2ncc3c(n2)N2CCC(F)(F)C2CO3)ccc1-n1cnc(C)c1` (single isomer, unassigned; (+)) [Example 304B, (+)-7,7-difluoro-N-(3-methoxy-4-(4-methyl-1H-imidazol-1-yl)phenyl)-6a, 7,8,9-tetrahydro-6H-pyrimido [5,4-b] pyrrolo [1,2-d] [1, 4] oxazin-2-amine], the 50% inhibitory concentration (IC50) stood at 75 nM. The figure for `Cc1cc(-c2ccc(Nc3ncc4c(n3)N(C)C(Cc3ccccc3)CO4)cc2F)ccn1` (single isomer, unassigned; (+)) [Example 57A] is 118 nM. For `COc1cc(Nc2ncc3c(n2)N(C)[C@@H](CC2CC2)CO3)ccc1-n1cnc(C)c1` [Example 217], the IC50 worked out at 53 nM. Next, `Cc1cn(-c2ccc(Nc3ncc4c(n3)N(C)C(c3cc(F)cc(F)c3)CO4)cc2F)cn1` (racemic) [Example 33]: 38 nM. The figure for `COc1cc(Nc2ncc3c(n2)N(C)C(c2ccc(F)cc2F)CO3)ccc1-n1cnc(C)c1` (single isomer, unassigned; (-)) [Example 48A] is 328 nM. Next, `COc1cc(Nc2ncc3c(n2)N(C)C(C2CC(F)(F)C2)CO3)cnc1-n1cnc(C)c1` (single isomer, unassigned; (+)) [Example 219A]: 25 nM; `COc1cc(Nc2ncc3c(n2)N2CCC(F)(F)C2CO3)cnc1-n1cnc(C)c1` (single isomer, unassigned; (-)) [Example 305B, (−)-7,7-difluoro-N-(5-methoxy-6-(4-methyl-1H-imidazol-1-yl)pyridin-3-yl)-6a, 7,8,9-tetrahydro-6H-pyrimido [5,4-b] pyrrolo [1,2-d] [1, 4] oxazin-2-amine]: 582 nM; `Cc1cn(-c2ccc(Nc3ncc4c(n3)N(C)C(C)CO4)cc2F)cn1` (single isomer, unassigned; (+)) [Example 108B]: 108 nM. Regarding `Cc1cc(-c2ccc(Nc3ncc4c(n3)N(C)C(c3cc(F)c(F)c(F)c3)CO4)cc2)ccn1` (racemic) [Example 37], the IC50 came out at 103 nM.
